Data as given in paper PMC10800708, “Efficacies and ADME properties of redox active methylene blue and phenoxazine analogues for use in new antimalarial triple drug combinations with amino-artemisinins” (Frontiers in Pharmacology, 2024).
Values joined by “and” are separate entries in the source; they are usually repeats but may differ in a detail not shown here. Identical values can stand only once. Like-named read-outs stand apart in the source and are kept apart here.

Tests used:
[1] = In vivo PK, iv and oral, whole blood; design: species or system C57BL/6 mice; conditions: for Vd / clearance / half-life / Cmax / Tmax: C57BL/6, mouse; for Vd / clearance / half-life / AUC0-∞ / Oral Cmax relative to the IC50 value / BA: mice; for Cmax / Tmax: po, 5 mg/kg; for BA: oral bioavailability
Method: • i. Animals. […] Food and water were available ad libitum. Mice were acclimatised to the experimental environment for 4-5 days prior to initiating the experiments. • ii. Oral drug administration. AD01 and PhX6 were prepared in 100% Millipore […] prepared in an aqueous suspension of 0.5% HPMC (w/v) containing 0.2% Tween 80 (v/v). The weighed compounds were sonicated and vortexed to ensure all solutions were homogenous. […] The total volume per administration was 200 μL. Blood samples were collected post-dose in lithium heparin microvials via tail bleeding at predetermined intervals at 0.5, 1, 3, 5, 8, 10 and 24 h. Samples were gently vortexed and stored at -80°C until analysis. • iii. Intravenous administration. AD01 and PhX6 were prepared in 100% Millipore […] prepared in an organic vehicle consisting of 10% N,N-dimethylacetamide, 30% polyethylene glycol 400 (PEG), 50% polypropylene glycol (PPG) and 10% ethanol (1:3:5:1, v/v) for intravenous (iv) dosing at 10 mg/kg. The total volume of administration was 80 μL. Blood samples were collected post-dose in lithium heparin microvials via tail bleeding at predetermined intervals at 0.16, 0.5, 1, 3, 5, 8, 10 and 24 h. Samples were gently vortexed and stored at -80°C until analysis. • iv. Sample processing and analysis. […] The mixture was vortexed vigorously for 1 min, and 5 μL of the supernatant were injected onto the analytical column following centrifugation (5590 g for 5 min). A Shimadzu HPLC and reverse phase Gemini NX-C18 column coupled to an AB Sciex 3200 Q TRAP MS was operated at unit resolution in the multiple reaction monitoring (MRM) mode as described above. […] Data analysis. Drug concentration versus time plots for each compound were used to determine maximal drug concentration C max, time T max to reach C max, elimination half-life t 1/2 and the area under the concentration-time curve from time zero to infinity, AUC0-inf. From these values the PK parameters clearance CL, volume of distribution Vd and oral bioavailability BA were determined using the non-compartmental analysis Microsoft Excel Add-In PKSolver ([Zhang et al., 2010]).

[2] = Plasma protein binding, ultracentrifugation; type: in vitro ADME; conditions: pooled human plasma
Method: Plasma protein binding. Plasma protein binding was determined in pooled human plasma using an ultracentrifugation method. Stock solutions of test compounds (10 mM) were diluted in phosphate buffer and spiked into plasma in deep well 96-well plates (10 µM). An aliquot of each compound was immediately precipitated with ice cold acetonitrile containing the internal standard carbamazepine (0.1 μM). These served as total concentration samples. After incubation in a water bath at 37°C for 1 h, the samples were transferred to ultracentrifuge tubes in duplicate and centrifuged for 4 h at 37°C and 30,000 g (Optima L-80XP, Beckman). Following centrifugation, the supernatant was transferred to the plate containing the total concentration samples and precipitated with ice cold acetonitrile containing the internal standard. Analyte concentrations of all compounds were determined via LC-MS/MS (reverse phase Gemini NX-C18 column and Shimadzu HPLC coupled with an AB Sciex 3200 Q TRAP MS) as described above. • vi.

[3] = 10 mg/kg, intravenous, whole blood
[4] = whole blood, iv, 10 mg/kg, intravenous, whole blood, read-out: t1/2 (converted)
[5] = oral gavage: AD01 4.6, PhX6 4.5, DpNEt 5 mg/kg

Compound `CCN(CC)c1ccc2nc3c4ccccc4/c(=N\c4ccccn4)cc-3oc2c1` [PhX6] has a Vd [1, 3] of 14.9 ± 2.09 L/kg, a clearance [1, 3] of 21.5 ± 1.76 mL/min/kg and a half-life [1, 4] of 478 ± 43.8 min. It also gave a half-life ([1]; whole blood, two-compartment behaviour, read-out: Distribution half-life) of 26 min, a Cmax ([1]; whole blood) of 3450 ± 680 nM and a Tmax ([1]; whole blood) of 48 ± 7.2 min. The “AUC0-∞” value ([1]; intravenous, whole blood) was 540 ± 44 µmol·min/L, the “Oral Cmax relative to the IC50 value” [1] was roughly 100 fold and the BA [1] was 60% and 60 ± 12%. The “AUC0-∞” value [1, 5] was 1,150 ± 216 min∙µmol/L and the fraction unbound at 1 h, 10 µM [2] was 0.1.

Work on `CCN(CC)c1ccc2nc3ccc(=[N+](CC)CC)cc-3sc2c1` [AD01] yielded a Vd [1, 3] of 16.2 ± 1.73 L/kg, a clearance [1, 3] of 74.4 ± 6.68 mL/min/kg and a half-life [1, 4] of 151 ± 4.2 min. The Cmax ([1]; whole blood) was 250 ± 50 nM, the Tmax ([1]; whole blood) was 52.8 ± 7.8 min and the “AUC0-∞” value ([1]; intravenous, whole blood) was 186 ± 15 µmol·min/L. The “Oral Cmax relative to the IC50 value” [1] was roughly 10 fold, the BA [1] was 15% and 15 ± 4% and the “AUC0-∞” value [1, 5] was 101 ± 19 µmol·min/L.
